Patent US20040009168A1, “Multidose antibody formulation” (priority 2002, published 2004)

What was measured:
[1] = system: Escherichia coli, Staphylococcus aureus, Pseudomonas aeruginosa; assay: Preservative screening test (modified USP/EP preservative efficacy test), bacteria; format: cell-based; details: for maximal log reduction against bacteria (model simulation): individual preservative; for b-coefficient, Bacterial LR: ± 95% confidence limits; for Bacterial × 10^4 (cfu/mL): 1 week at 25 ° C., total bacterial count 8.78 × 10^4 cfu/mL; for antimicrobial efficacy against bacteria (regression analysis, in words): I-optimal design, 14 days at room temperature
Procedure: (§1) The efficacy of the preservative against various microorganisms was measured using a modified USP/EP preservative efficacy test. These tests were conducted at Microconsult Inc. (Dallas, Tex.). In the procedure, formulations were tested against the following microorganisms: Escherichia coli, Staphylococcus aureus, Pseudomonas aeruginosa, Candida albicans, and Aspergillus niger. The three bacterial strains were inoculated together at a total concentration of ˜10^5 cfu/mL, and the two fungi were inoculated together at a total concentration of ˜10^5 cfu/mL. Samples were incubated for 7 days at room temperature (25° C.), and the total bacterial and fungal counts were measured using a colony counter. The log reduction (LR) values for the bacterial and fungal counts were calculated as log (initial count/final count).
(§2) In the unmodified USP/EP preservative efficacy tests, each microorganism is tested separately at a concentration of ˜10^5 cfu/mL. […] The preservative efficacy test was modified in this study to reduce the total sample requirement and cost per analysis. Although the bacterial and fungal strains were not tested individually at specified concentrations, by comparing the overall bacterial and fungal log reduction values with the regulatory requirements, an assessment is made of the efficacy of the preservative against these microorganisms.
(§3) The formulations were prepared by adding the preservatives at the desired concentrations as per the I-optimal design table (Table II), generated using the software Strategy (Experiment Strategies Foundation & Process Builder, Inc.). All samples were incubated at 37° C. for 9 weeks. Because protein aggregation was known to be the primary degradation pathway, protein stability was examined by SEC and right-angle light scattering to monitor the formation of soluble and insoluble aggregates, respectively, and by UV spectroscopy to monitor changes in the protein concentration. The biological activity of the samples was assessed after 1 month at 37° C. Furthermore, to assess the antimicrobial efficacy of the formulations, samples were examined by the preservative screening test at the initial time point. Samples were incubated at room temperature, and the aerobic plate counts were measured based on the minimum requirements of the USP and BP/EP preservative efficacy tests at 24 hours, 7 days, and 14 days.

[2] = system: Candida albicans, and Aspergillus niger; assay: Preservative screening test (modified USP/EP preservative efficacy test), fungi; format: cell-based; details: for Fungi × 10^5 (cfu/mL): 1 week at 25 ° C., total fungal count 2.84 × 10^5 cfu/mL
Procedure: as §1, §2, §3

[3] = system: formulated humanized monoclonal antibody; assay: Differential scanning calorimetry (DSC), denaturation temperature; format: physicochemical; details: for Effect on the denaturation temperature (in words): addition of the preservative, relative to control; for Tm (by DSC): initial time point, t0
Procedure: (§4) The compatibility of six parenteral preservatives (benzyl alcohol, chlorobutanol, methyl paraben, propyl paraben, phenol, and m-cresol) with the formulated humanized monoclonal antibody was tested. The preservatives were added to the formulated antibody based on their commonly used concentration ranges in marketed multidose products (3). Protein aggregation was suspected to be the primary degradation pathway. Preliminary evaluation of the preservatives was done initially by DSC and after 2 days of incubation at 50° C. by visual inspection for appearance and by SEC for soluble aggregates.
A decrease in the denaturation temperature reflects a destabilizing effect of the preservative on formulation stability. The denaturation temperature (Tm) of the sample was measured using the Pyris 1 differential scanning calorimeter (Perkin Elmer). A sample volume of 50 μL was taken from a 10 mg/mL protein sample and sealed in a stainless steel pan. The sample was held at 32° C. for 2 minutes, and heated to 100° C. at the rate of 10° C./min.

[4] = system: formulated humanized monoclonal antibody; assay: Size-exclusion chromatography (SEC), monomer content; format: physicochemical; details: for Effect of the preservative on antibody stability (in words): preliminary screening, 2 days at 50° C.; for Monomer (%): 1 week at 45 ° C.; for Percent monomer (by SEC): after 2 days at 50° C.
Procedure: as §4
(§5) Because of the results seen in the preliminary evaluation, additional analyses were done using lower concentrations of the preservatives.
The monomer content, soluble aggregates, and clips due to hydrolysis were monitored by size-exclusion chromatography. The analytical system employed consisted of an HPLC pump (Perkin Elmer, Series 410) and an autosampler (Perkin Elmer, ISS 2000) connected to a diode array detector (Perkin Elmer, 235C). Two size-exclusion chromatography columns (Tosohaas TSK-Gel, G3000SWXL,), connected in tandem, were used for sample separation. The composition of the mobile phase was 200 mM KPO4, 150 mM NaCl, pH 6.9. Samples were diluted to 1 mg/mL and a sample volume of 40 μL was injected for analysis. The flow rate was 1.0 mL/min, and detection was at 220 and 280 nm.

[5] = system: formulated humanized monoclonal antibody; assay: Visual analysis of the antibody formulation with preservative; format: physicochemical; details: for Visual analysis: after 2 days at 50° C.
Procedure: as §4

[6] = system: antigen expressed on human T cells; assay: Potency testing by FACS binding assay (flow cytometry); details: 1 week at 45 ° C.
Procedure: as §5
The biological activity (potency) of the protein was measured by flow cytometry, based on the binding of the antibody antigen expressed on human T cells.

[7] = main effect of the preservative (bi)
[8] = quadratic term of one preservative (bii)
[9] = single preservative, 0.2% chlorobutanol

Row | Monomer (%) ([4]; preservative 0.01%) | SMILES | maximal log reduction against bacteria (model simulation) [1] | b-coefficient, Bacterial LR [1, 7] | b-coefficient, Bacterial LR [1, 8] | b-coefficient, Fungal LR [2, 7] | Fungi × 10^5 (cfu/mL) ([2]; preservative 0.05%) | Fungi × 10^5 (cfu/mL) ([2]; preservative 0.1%) | b-coefficient, Fungal LR [2, 8] | Effect on the denaturation temperature (in words) [3] | antimicrobial efficacy against bacteria (regression analysis, in words) [1] | Bacterial × 10^4 (cfu/mL) ([1]; preservative 0.01%) | Effect of the preservative on antibody stability (in words) [4] | Percent monomer (by SEC) ([4]; preservative 0.1%) [%] | Visual analysis ([5]; preservative 0.1%) | Potency (%) ([6]; preservative 0.01%) | Fungi × 10^5 (cfu/mL) ([2]; preservative 0.01%) | further results
1 | – | CC(C)(O)C(Cl)(Cl)Cl [Chlorobutanol, chlorobutanol] | 2.0 | 0.27 ± 0.05 | 0.17 ± 0.10 | 0.07 | 18 × 10^5 cfu/mL | 14 × 10^5 cfu/mL | −0.64 | – | – | – | – | – | – | – | – | Bacterial × 10^4 (cfu/mL) ([1]; preservative 0.2%): 46 × 10^4 cfu/mL; log reduction value predicted by simulation, bacteria [1, 9]: 2.0; Fungi × 10^5 (cfu/mL) ([2]; preservative 0.2%): 0 × 10^5 cfu/mL; log reduction value predicted by simulation, fungi [2, 9]: 1.2
2 | 98.31 | COC(=O)c1ccc(O)cc1 [Methyl paraben, methyl paraben] | 2.3 | 0.60 ± 0.05 | 0.12 ± 0.10 | 0.46 | 2 × 10^5 cfu/mL | 0 × 10^5 cfu/mL | 0.00 | did not affect the denaturation temperature | statistically significant antimicrobial efficacy | TNTC | stable | 91.3 | Clear | 73 | 26 × 10^5 cfu/mL | Tm (by DSC) ([3]; preservative 0.05%): 80.4 °C; Bacterial × 10^4 (cfu/mL) ([1]; preservative 0.05%): TNTC; Bacterial × 10^4 (cfu/mL) ([1]; preservative 0.1%): 56 × 10^4 cfu/mL; Monomer (%) ([4]; preservative 0.05%): 97.43%; Monomer (%) ([4]; preservative 0.1%): 97.18%; Percent monomer (by SEC) ([4]; preservative 0.1%, listed as methyl paraben): ~91%; Visual analysis ([5]; preservative 0.05%): Clear; Potency (%) ([6]; preservative 0.05%): 75%; Potency (%) ([6]; preservative 0.1%): 75%
3 | – | Oc1ccccc1 [Phenol, phenol] | – | – | – | – | – | – | – | – | – | – | not compatible with the protein | 62.7 | Slightly cloudy | – | – | Effect of the preservative on antibody stability (in words) ([4]; listed as phenol): caused the formation of both soluble and insoluble aggregates; Percent monomer (by SEC) ([4]; preservative 0.5%): 20.0%; Visual analysis ([5]; preservative 0.5%): Cloudy
4 | 97.34 | CCCOC(=O)c1ccc(O)cc1 [Propyl paraben, propyl paraben] | – | −0.14 ± 0.05 | 0.26 ± 0.10 | 0.29 | – | – | 0.40 | did not affect the denaturation temperature | not effective | TNTC | stable | – | – | 68 | 0 × 10^5 cfu/mL | Tm (by DSC) ([3]; preservative 0.02%): 80.6 °C; Bacterial × 10^4 (cfu/mL) ([1]; preservative 0.0075%): TNTC; Monomer (%) ([4]; preservative 0.0075%): 97.89%; Percent monomer (by SEC) ([4]; preservative 0.02%): 85.3%; Percent monomer (by SEC) ([4]; preservative 0.02%, listed as propyl paraben): 85%; Visual analysis ([5]; preservative 0.02%): Clear; Potency (%) ([6]; preservative 0.0075%): 74%; Fungi × 10^5 (cfu/mL) ([2]; preservative 0.0075%): 2 × 10^5 cfu/mL
5 | – | Cc1cccc(O)c1 [m-cresol] | – | – | – | – | – | – | – | – | – | – | not compatible with the protein | – | Precipitated | – | – | Visual appearance of the formulations (in words) ([5]; all tested concentrations, 2 days at 50° C.): precipitated the protein; Visual analysis ([5]; preservative 0.3%): Precipitated
